Reference: paper PMC5727100, “Evolution of a flipped pathway creates metabolic innovation in tomato trichomes through BAHD enzyme promiscuity” (Nature Communications, 2017)

Target: T1, S. arcanum LA2172-ASAT2 (Solanum arcanum, UniProt A0A0U2QQP2)
T1 construct: pET28b, His-tag nickel purified from E. coli BL21 Rosetta
T1 sequence (A0A0U2QQP2 1-446): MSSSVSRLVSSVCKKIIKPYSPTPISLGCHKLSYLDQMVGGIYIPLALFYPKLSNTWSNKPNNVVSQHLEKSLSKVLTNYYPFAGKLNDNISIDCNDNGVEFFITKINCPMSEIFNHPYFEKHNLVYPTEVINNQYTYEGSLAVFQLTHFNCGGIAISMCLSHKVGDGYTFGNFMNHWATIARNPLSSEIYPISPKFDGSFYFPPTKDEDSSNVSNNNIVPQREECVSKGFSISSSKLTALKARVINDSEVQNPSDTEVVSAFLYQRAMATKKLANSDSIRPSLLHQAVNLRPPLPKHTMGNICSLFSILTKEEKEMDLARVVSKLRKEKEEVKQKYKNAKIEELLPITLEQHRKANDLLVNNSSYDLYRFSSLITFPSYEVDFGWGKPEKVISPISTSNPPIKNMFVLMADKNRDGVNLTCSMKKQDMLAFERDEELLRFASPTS
Assay: LC/MS product detection
Format: biochemical
Details: acyl-CoA donor 100 uM; acceptor 50 uM; pH 6.0, 30 C

With `CC(C)CC(=O)O[C@H]1[C@H](O)[C@@H](O)[C@@H](O[C@]2(CO)O[C@H](CO)[C@@H](O)[C@@H]2O)O[C@@H]1CO` [S1:5 (iC5^R4)] the LC/MS product detection was “all characterized ASAT2 proteins in this tomato subclade possessed only F-type enzymatic activities”.
